# Measured values taken from patent US20070099851A1, “Stable analogues of ribose-1-phosphate and methods for treating diabetes and other metabolic disorders” (priority 2004, published 2007).
# pIC50, pKi: −log10 of the molar value. Read-outs that look alike come from different tables or passages of the source. Marks after values point to notes of the source that are not given here.
# How the values were obtained:
# [1] = target: T1, human purine nucleoside phosphorylase (Homo sapiens, UniProt P00491); settings: background statement; cited from earlier work
# T1 sequence (P00491 1-289): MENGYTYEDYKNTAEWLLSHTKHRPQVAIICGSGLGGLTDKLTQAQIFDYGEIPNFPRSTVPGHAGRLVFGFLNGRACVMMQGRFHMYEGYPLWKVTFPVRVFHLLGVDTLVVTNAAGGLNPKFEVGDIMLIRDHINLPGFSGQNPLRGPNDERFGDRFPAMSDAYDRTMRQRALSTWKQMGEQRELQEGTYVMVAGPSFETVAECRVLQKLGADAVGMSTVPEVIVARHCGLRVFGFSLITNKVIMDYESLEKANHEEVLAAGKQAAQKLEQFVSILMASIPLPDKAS
# HL-60, Leukemia = assay: Anticancer activity, HL-60; format: cell-based
# Zucker (fa/fa) rats = assay: Glucose tolerance test in diabetic Zucker (fa/fa) rats; format: in vivo, rat; settings: for Blood Glucose at 120 minutes: fasted Zucker (fa/fa) rats, IP glucose 1.5 g/kg
# Protocol: Thirty-six 16 wk old male Zucker (fa/fa) rats were randomly assigned to one of the following groups: • 1. Vehicle (0.9% NaCl) • 2. Metformin—320 mg/kg • 3. Compound 1.1—10 mg/kg Acid • 4. Compound 1.1—100 mg/kg Acid • 5. Compound 3.1—10 mg/kg Ester • 6. Compound 3.1—100 mg/kg Ester
# Animals were fasted for 16-18 hr and lightly anesthetized with a mixture of ketamine/xylazine at a dose of 0.5 ml/kg (45 mg/kg ketamine, 5 mg/kg xylazine). Animals received their respective treatments via IP injection (1.5 ml/kg) followed by an IP injection of glucose at 1.5 g/kg. Blood glucose was measured at 0, 30, 60, 90, and 120 minutes post-glucose.
# FAO hepatoma cells [2] = settings: background statement; cited from earlier work
# 6-phosphofructo-1-kinase [3] = settings: background statement; cited from earlier work
# [4] = target: T2, Fructose-1,6-bisphosphatase (Homo sapiens, UniProt P09467); assay: Inhibition of fructose-1,6-bisphosphatase; format: biochemical
# T2 sequence (P09467 2-338 limits assumed): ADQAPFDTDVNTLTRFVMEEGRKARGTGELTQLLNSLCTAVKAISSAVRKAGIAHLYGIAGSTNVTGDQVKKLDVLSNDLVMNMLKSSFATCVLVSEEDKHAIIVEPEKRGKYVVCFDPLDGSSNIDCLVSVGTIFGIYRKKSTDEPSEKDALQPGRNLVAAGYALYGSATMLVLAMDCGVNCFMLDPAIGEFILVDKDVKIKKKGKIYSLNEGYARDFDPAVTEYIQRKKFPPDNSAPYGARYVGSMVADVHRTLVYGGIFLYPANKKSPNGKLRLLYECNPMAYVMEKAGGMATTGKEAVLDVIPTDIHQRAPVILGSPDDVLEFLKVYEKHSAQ
# Source text: (§1) Studies of Compound 2 have shown that it activates 6-phosphofructo-1-kinase (6PF1K) and inhibits fructose-1,6-bisphosphatase (FBPase). […] It is well known that by increasing the rate of glycolysis, the rate of gluconeogenesis decreases (Hanson et al. (1984) J. Biol. Chem. 259, 218-223).
# [5] = target: T2, Fructose-1,6-bisphosphatase; settings: background statement; cited from earlier work
# FAO hepatoma cells [6] = assay: Inhibition of glucose production in FAO cells; format: cell-based; settings: for Percent inhibition of glucose production: FAO cells
# Source text: as §1
# 6-phosphofructo-1-kinase [7] = assay: Activation of 6-phosphofructo-1-kinase; format: biochemical; settings: for Ka: concentration giving half-maximal activation
# Source text: as §1
# Ka is the concentration of substrate giving half-maximal activation.
# [8] = system: INS-1 clonal pancreatic B-cells; assay: Stimulation of insulin secretion in INS-1 cells; format: cell-based; settings: for Insulin release greater compared to controls: 3 mM glucose, 500 μM compound, overnight; for Activating effect on insulin release, in words: 16 mM glucose
# Protocol: INS-1 clonal pancreatic B-cells were grown in well plates or T-25 flasks incubated overnight with INS-1 cell media with 3 mM glucose and 500 μM of compound 3 or compound 4. Insulin samples were collected for 10 minutes at 18 second intervals. Insulin release was greater for both compound 3.1 and compound 4.1 compared to controls, by about 50 percent, under these conditions. At 16 mM glucose the activating effect disappeared.
# Rh1, Ewing Sarcoma = assay: Anticancer activity, Rh1; format: cell-based
# HTC hepatoma cells = assay: Inhibition of intracellular lipid synthesis in HTC hepatoma cells; format: cell-based; settings: 500 μM; for Cholesterol: control 48; for Triglyceride: control 60
# [9] = target: T3, calf spleen purine nucleoside phosphorylase (Bos taurus, UniProt P55859); assay: Inhibition of calf spleen purine nucleoside phosphorylase (cPNP); format: biochemical; settings: for cPNP activity: 27 μM compound
# T3 construct: from tissue; host or cells: calf spleen
# T3 sequence (P55859 1-289): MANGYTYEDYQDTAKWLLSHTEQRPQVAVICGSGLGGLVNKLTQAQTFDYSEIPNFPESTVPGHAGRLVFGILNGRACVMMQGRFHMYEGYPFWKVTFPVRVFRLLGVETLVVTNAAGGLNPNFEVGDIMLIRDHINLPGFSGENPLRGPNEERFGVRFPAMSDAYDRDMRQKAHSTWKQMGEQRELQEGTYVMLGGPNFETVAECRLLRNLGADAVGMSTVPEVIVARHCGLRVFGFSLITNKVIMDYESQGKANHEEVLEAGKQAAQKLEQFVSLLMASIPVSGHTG
# Protocol: Compound 4.1 (27 μM) was incubated with calf spleen purine nucleoside phosphorylase with increasing concentrations of inorganic phosphate.
structure (smiles),measurement,setting,value
O=P(O)(O)OC1O[C@H](CI)[C@@H](O)[C@H]1O (stereo partly shown) [5-iodo-ribose-1-phosphate],"Effect on human purine nucleoside phosphorylase, in words",[1],inhibits
"O=P(O)(O)CC1OC(CO)C(O)C1O (stereo not shown) [Compound 1.1, ribose-1-methylenephosphonate]",pIC50,"HL-60, Leukemia",3.77
same,Blood Glucose at 120 minutes,Zucker (fa/fa) rats; 10 mg/kg IP,460 mg/dL
same,Blood Glucose at 120 minutes,Zucker (fa/fa) rats; 100 mg/kg IP,400 mg/dL
same,"Effect on blood glucose levels, in words","Zucker (fa/fa) rats; fasted diabetic Zucker (fa/fa), injected, glucose challenge",reduce blood glucose levels
"O=P(O)(O)CC1OC(COP(=O)(O)O)C(O)C1O (stereo not shown) [Compound 2.1, 5-phosphoribosyl-1-methylenephosphonate]","Glucose production in cultured hepatoma cells (FAO), in words",FAO hepatoma cells [2],inhibit glucose production
same,Blood Glucose at 120 minutes,Zucker (fa/fa) rats; 10 mg/kg IP,500 mg/dL
same,Blood Glucose at 120 minutes,Zucker (fa/fa) rats; 100 mg/kg IP,500 mg/dL
same,Ka,6-phosphofructo-1-kinase [3],6.5 µM
same,"Effect on fructose-1,6-bisphosphatase (FBPase), in words",[4],inhibits
same,pKi,"[4]; At 5 μM Fru-1,6-bisphosphate",4.06
same,Maximum Decrease in Activity,"[4]; At 5 μM Fru-1,6-bisphosphate",50%
same,pKi,"[4]; At 20 μM Fru-1,6-bisphosphate",4.06
same,Maximum Decrease in Activity,"[4]; At 20 μM Fru-1,6-bisphosphate",50%
same,pKi,[5],4.07
same,Percent inhibition of glucose production,FAO hepatoma cells [6]; 60 μM,20 ± 15%
same,Percent inhibition of glucose production,FAO hepatoma cells [6]; 100 μM (last row of the table),60 ± 15%
same,Percent inhibition of glucose production,FAO hepatoma cells [6]; 125 μM,35 ± 10%
same,Percent inhibition of glucose production,FAO hepatoma cells [6]; 250 μM,40 ± 10%
same,Percent inhibition of glucose production,FAO hepatoma cells [6]; 500 μM,35 ± 10%
same,"Glucose production in FAO hepatoma cells, in words",FAO hepatoma cells [6]; incubated with FAO hepatoma cells,inhibits glucose production
same,"Effect on 6-phosphofructo-1-kinase (6PF1K), in words",6-phosphofructo-1-kinase [7],activates
same,Ka,6-phosphofructo-1-kinase [7],6.5 µM
"CCOP(=O)(CC1OC(CO)C(O)C1O)OCC (stereo not shown) [Compound 3.1, ribose-1-methylenediethylphosphonate]",Insulin release greater compared to controls,[8],about 50%
same,"Activating effect on insulin release, in words",[8],disappeared
"O=P(O)(O)C(F)(F)C1OC(CO)C(O)C1O (stereo not shown) [Compound 4.1, ribose-1-difluoromethylenephosphonate]",Insulin release greater compared to controls,[8],about 50%
same,"Activating effect on insulin release, in words",[8],disappeared
same,pIC50,"Rh1, Ewing Sarcoma",3.77
same,Cholesterol,HTC hepatoma cells,39 μg/mg protein
same,Triglyceride,HTC hepatoma cells,44 μg/mg protein
same,Decrease in cholesterol levels compared to control,HTC hepatoma cells; overnight,~20%
same,Decrease in triglyceride levels compared to control,HTC hepatoma cells; overnight,26%
same,cPNP activity,"[9]; Pi 20 μM, control 170",18* arbitrary units
same,cPNP activity,"[9]; Pi 50 μM, control 237",31 arbitrary units
same,cPNP activity,"[9]; Pi 200 μM, control 298",96 arbitrary units
same,cPNP activity,"[9]; Pi 1500 μM, control 327",176 arbitrary units
same,"Mode of inhibition of cPNP, in words","[9]; 27 μM, increasing inorganic phosphate",likely a competitive inhibitor of cPNP
"CN(C)C(=N)N=C(N)N [Metformin, reference compound]",Blood Glucose at 120 minutes,Zucker (fa/fa) rats; 320 mg/kg IP,400 mg/dL
same,Cholesterol,HTC hepatoma cells,38 μg/mg protein
same,Triglyceride,HTC hepatoma cells,42 μg/mg protein
"O=P(O)(O)OC[C@H]1O[C@@](CO)(OP(=O)(O)O)[C@@H](O)[C@@H]1O [fructose-2,6-bisphosphate, reference compound]",Ka,6-phosphofructo-1-kinase [7],0.09 µM
"O=P(O)(O)OC[C@H]1OC(OP(=O)(O)O)[C@H](O)[C@@H]1O (stereo partly shown) [ribose-1,5-bisphosphate, reference compound]",pKi,"[4]; At 5 μM Fru-1,6-bisphosphate",4.06
same,Maximum Decrease in Activity,"[4]; At 5 μM Fru-1,6-bisphosphate",50%
same,pKi,"[4]; At 20 μM Fru-1,6-bisphosphate",4.06
same,Maximum Decrease in Activity,"[4]; At 20 μM Fru-1,6-bisphosphate",50%
same,Ka,6-phosphofructo-1-kinase [7],3.5 µM
